# Measurements taken from patent publication US11801000B2, “Hormone electrochemical biosensor” (Trustees of Boston University, priority 2021, dated 2023).
# “Also recorded” adds a separate entry of the source.
# Assays:
# [1] = Cyclic voltammetry, electroactivity on DS110 carbon SPE; assay type: physicochemical
# KSDH1 [2] = experiment: 2,6-Dichlorophenolindophenol (DCPIP) dehydrogenase functional assay; assay type: biochemical, Pimelobacter simplex; conditions: for Binding affinity, kinetics derived from velocity by hormone concentration experiment: FIG. 9C-9D
# Experimental: A 2,6-Dichlorophenolindophenol functional assay was used to test whether KSDH1 is a dehydrogenase (FIG. 9A).
# (§1) The FAD-binding (KSDH1) enzyme was used to develop and optimize a hormone electrochemical biosensor. […] KSDH1 was also assessed using a DCPIP Assay to test whether it is a dehydrogenase.
# KSDH1 [3] = experiment: Amplex UltraRed assay (H2O2 detection by fluorescence); assay type: biochemical, Pimelobacter simplex; conditions: 500 μM final PRG, CRT; 4.56 μM KSDH1; normalized (analytes without enzyme subtracted)
# Experimental: FIGS. 6A-6B are schematics and graphs detailing the Amplex® UltraRed Reagent assay in which fluorescence is analyte limited, not enzyme limited. FIG. 6A is a schematic showing the Amplex® UltraRed mechanism for oxidase enzymes. Hormone is oxidized into product and H2O2 with presence of […] and O2. Horseradish peroxidase (HRP) then oxidizes Amplex® UltraRed in the presence of H2O2 into resorufin, which is fluorescent.
# In Vitro Enzyme Characterization: Amplex® UltraRed assays were performed per instruction of the manufacturer (Thermo Fisher Scientific, Cambridge, Mass.). Final concentrations of Amplex® UltraRed, 500 uM, and HRP, 1 U/mL, in a total volume of 20 μL were used. Hormone and KSDH1 and KSDH2 concentrations varied with experiment. All measurements of fluorescence were done in a 384 well flat bottom black polystyrene microplate (Corning Inc.™, Corning, N.Y.) and read in an Infinite M200 Pro™ (TECAN Group Ltd.™, Medford, Mass.) spectrophotometer at room temperature with the excitation set to 490 nm and emission at 585 nm. Readings were done over 1 hour with each well read every 30 seconds.
# as §1
# Pimelobacter simplex = experiment: RNA-Seq of Pimelobacter simplex in the presence of hormone; assay type: cell-based; conditions: P. simplex grown in the presence of progesterone
# Experimental: FIG. 3 is a series of graphs showing that RNA-Seq identified the steroid degrading genome cluster in Pimelobacter simplex.
# Strain RNA Extraction: Cells were grown in 5 mL M18 at a starting OD600 of 0.005 with 21.6 μM hormone in 14 mL polypropylene round-bottom tubes (Corning Inc.™, Corning, N.Y.) in singlet. The cells were incubated at 30° C. with continuous orbital shaking at 150 rpm until the end of lag-phase (3 hours) and mid-log phase (7.5 hours) from the start of inoculation. Controls were grown in the same conditions without hormone. […] RNA samples were subsequently quantified using Qubit RNA HS Assay Kit™ (Thermo Fisher Scientific Inc.™, Cambridge, Mass.) and analyzed using a RNA 6000 Pico Kit™ (Agilent Technologies Inc.™, Santa Clara, Calif.) in a 2100 Bioanalyzer™ (Agilent Technologies Inc.™, Santa Clara, Calif.). […]
# RNA-Seq Library Preparation: After RNA samples have been quantified and analyzed they were DNase treated using TURBO™ DNase 2 U/μL (Thermo Fisher Scientific Inc™ Cambridge, Mass.) and cleaned using Agencourt RNAClean™ XP SPRI beads (Beckman Coulter, Inc.™, Brea, Calif.). […] Whole transcriptome RNA sequencing was performed by a NextSeq 500™ (Illumina Inc.™, San Diego, Calif.) at high output (400 M reads) with 75 bp paired end sequencing read length. The data was then analyzed in-house through a proprietary lab computational pipeline.
# [4] = KSDH1 stability (storage, immobilizing polymer) on biosensor; assay type: physicochemical
# Description: FIG. 27. KSDH1 precipitation in the presence of chitosan, an immobilizing polymer, is evident.
# FIG. 30A-B. Glutaraldehyde immobilization decreases signal (FIG. 30A).
# [5] = DS110, DMSO as solvent (FIG. 16A)
# [6] = DS110, EtOH as solvent (FIG. 16B)
Molecule,"Electroactivity by cyclic voltammetry [1, 5]","Electroactivity by cyclic voltammetry [1, 6]","Binding affinity, kinetics derived from velocity by hormone concentration experiment (KSDH1 [2])",KSDH1 response (fluorescence signal) to analyte (KSDH1 [3]),"KSDH1 sensitivity in sterol screen (DCPIP reduction, absorbance at OD600 nm) (KSDH1 [2]; sterol screen, FIG. 9B)",Expression of sterol responsive enzymes KSDH1 and KSDH2 (SRGI cluster) (Pimelobacter simplex),"Behaviour in the presence of chitosan, an immobilizing polymer ([4]; FIG. 27)","Current output after storage ([4]; storage at 4 C for 1 week, two electrode configuration, DS110, +0.4V)"
"C[C@]12CCC(=O)C=C1CC[C@@H]1[C@@H]2[C@@H](O)C[C@@]2(C)[C@H]1CC[C@]2(O)C(=O)CO [Cortisol, hydrocortisone]",not electroactive,not electroactive,strong,increase of fluorescence; also recorded: responsive,,,,
"CC(=O)[C@H]1CC[C@H]2[C@@H]3CCC4=CC(=O)CC[C@]4(C)[C@H]3CC[C@]12C [Progesterone, progesterone]",not electroactive,not electroactive,strong,increase of fluorescence; also recorded: responsive,DCPIP was reduced; also recorded: high sensitivity,highly expressed,,
"3-ketosteroid-Δ1-dehydrogenase enzyme 1 (protein, 6xHis tag) MDWAEEYDVLVAGSGAGGMAGTYTAAREGLSVCLVEAGDKFGGTTAYSGGGGAWFPANPVLLRAGTDDTIEDALEYYRAVVGDRTPADLQETYVRGGAGLVAYLEEDDHFSFESYPWPDYFGDAPKARRDGQRHIIPTPLPVPSAPELREVVRGPLDNDRLGTPQPDDLFIGGRALVARFLTALATYPHATLVRETALAELVVEDGVVVGAIVETDGVRRAIRARRGVLLAAGGFEANDELRQKYGVPGVARDTMGPPTNVGAAHQAAIAVGADTDLMGEAWWSPGLTHPDGRSAFALWFTGGIFVDGAGRRFVNESAPYDRLGRAVIDHLTEGGVTPRYWMVYDHKEGSIPPVRATNVSMVDEEQYVAAGLWHTADTLPELAALIGVPADALVATVARFNELVADGYDADFGRGGEAYDRFFSGGEPPLVSIDEGPFHAAAFGISDLGTKGGLRTDTSARVLTADGTPIGGLYAAGNTMAAPSGTTYPGGGNPIGTSMLFSHLAVRHMGTEDARGSHHHHHH",,,,,,,precipitation,no change in current output
